This is an account of results in paper PMC7369637, “Inhibition of Resistance-Refractory P. falciparum Kinase PKG Delivers Prophylactic, Blood Stage, and Transmission-Blocking Antiplasmodial Activity” (Cell Chemical Biology, 2020).

“Also recorded” adds a separate entry of the source. Like-named read-outs stand apart in the source and are kept apart here.

In data set [1] the test system is P. berghei ANKA liver stages. Description: Liver stage susceptibility, luciferase-based assay (PbLuc sporozoites in HepG2). It is filed as cell-based. To be noted: Plasmodium berghei. As for the experimental part:
P. berghei ANKA infections were maintained in BALB/c female mice (The Jackson Laboratory) infected via intraperitoneal injection of 2×10^7 blood stage parasites. Infected mice were provided water ad libitum and housed in standard cages in an animal facility room maintained at 22°C and 50-70% relative humidity. Anopheles stephensi mosquitoes were housed in an insectary maintained at 27°C, 80% humidity and a 12:12 light:dark schedule. […] 24 h before infection, 384-well plates (Greiner Bio) were seeded with 1x10^4 HepG2-A16-CD81^EGFP cells in 30 μL of assay medium (DMEM without Phenol Red (Life Technologies, CA), 5% FBS and 5x Pen-Strep Glutamine (Life Technologies, CA)). Luciferase-expressing Pb (PbLuc) sporozoites were freshly obtained by dissecting salivary glands of infected Anopheles stephensi mosquitoes and 5x10^3 sporozoites in 30 μL were added to each well. Plates were centrifuged for 5 min at 330g and incubated for 2 h at 37°C and 5% CO2. Unbound sporozoites were then removed by centrifugation and washing and 30 μL of fresh medium was added. […] Luminescence was measured using an Envision Multilabel Reader (PerkinElmer) to assess parasite growth as a function of compound concentrations.

For a further data set, the system named is Pf ABS parasites. Description: Light microscopy of ABS development. The data set is classed as cell-based, Plasmodium falciparum. To be noted: ring-stage parasites exposed to 350 nM (approximately 3 × IC50).
A further data set concerns sel. Dd2-B2 TKL3T1268R. Kind of data set: 72-h ABS assay, MMV030084-selected line. It is filed as cell-based, Plasmodium falciparum. To be noted: Plasmodium falciparum. As for the experimental part:
(§1) Synchronicity was achieved using three rounds of sorbitol treatment on early rings, spaced 48 h apart, followed by magnetic purification of segmented schizonts following the final sorbitol treatment. Parasites were highly synchronous to within a 3 h window of development. Assays were repeated on at least three independent occasions (each with technical duplicates) and statistical significance was assessed using Mann Whitney U tests.
(§2) The resulting MMV030084-resistant parasites were cloned by limiting dilution ([Baker et al., 2017]) to obtain genetically homogenous cultures for further phenotyping and whole-genome sequencing. A second round of […]. […] Drug susceptibility of resistant lines was assessed using a 72 h ABS assay as described above, and a Mann Whitney U test was applied to assess statistically significant differences.

For data set [2], the system named is Dd2-B2 TKL3KO parasites with PP1 H237D/V249L or URP E20* mutations. Kind of data set: 72-h ABS assay, lines pulse-selected from ed. Dd2-B2 TKL3KO. It is filed as cell-based. To be noted: Plasmodium falciparum, parent ed. Dd2-B2 TKL3KO. As for the experimental part:
as §1, §2

The test system of another data set is Pf NF54 male gametes. Kind of data set: Dual gamete formation assay, male gamete exflagellation. The data set is classed as cell-based. The settings on record: Plasmodium falciparum. As for the experimental part: (§3) Pf NF54 gametocytes were generated as reported elsewhere ([Delves et al., 2016]). Briefly, static cultures of unsynchronized asexual parasites were continuously maintained as above. Parasites were cultured at 1% ring-stage parasitemias and 4% (v/v) hematocrit prior to the induction of gametocytes. To prepare gametocytes, 75% of the media was replaced daily for 14 subsequent days without adding fresh RBCs. During this process the temperature was kept strictly constant, as the rate of exflagellation is highly temperature-dependent. Between days 1 and 4 after culture induction, the asexual parasitemias increased rapidly to a peak. By day 7, as the asexual population waned, early-stage gametocytes became observable. By day 8, gametocyte maturation had progressed, and by day 14 morphologically distinguishable, mature stage V male and female gametocytes were present. […] Control reactions contained DMSO or 20 μM methylene blue (as negative and positive controls, respectively). […] After imaging, the plate was incubated at 18°C for a further 24 h to allow female gametes to maximally express Pfs25, followed by fluorescence microscopy imaging using a 10× objective. Both time lapse images of exflagellation and fluorescence images of female gametes were automatically quantified using custom scripts in ICY BioImage Analysis ([Delves et al., 2016]).

A further data set relates to Pf NF54 female gametes. Description: Dual gamete formation assay, female gamete formation. To be noted: carry-over and wash-out. The data set is classed as cell-based, Plasmodium falciparum. As for the experimental part: as §3
The test system of data set [3] is Dd2-B2 and ed. Dd2-B2 TKL3KO parasites. Description: In vitro selections for MMV030084 resistance. The settings on record: 1 × 10^9 Dd2-B2 TKL3KO parasites, 1,100 nM. The data set is classed as cell-based, Plasmodium falciparum. The method, then:
as §2

Data set [4] deals with ed. Dd2-B2 TKL3I1250M+T1268R. Kind of data set: 72-h ABS assay, CRISPR/Cas9-edited double-mutant line. The data set is classed as cell-based. To be noted: Plasmodium falciparum, parent Dd2-B2 wild-type. The source says: Supplement mmc2.xlsx, sheet "Table S1 (I)" | column: Mean IC50
For the next data set, the system named is female gamete formation. To be noted: ref Miguel-Blanco et al., 2017; cited from earlier work.
The next data set can be described thus: in vitro. The settings on record: human.

`CC(C)(CN)c1nc(-c2ccc(Cl)c(O)c2)c(-c2ccncc2)[nH]1` [MMV030084]: the IC50 in [1] (HepG2, compound added 2 h after infection, read-out: IC50, liver stage, post-invasion exposure) is over 10000 nM; in data set [1] (luciferase-expressing Pb parasites, host HepG2 liver cells, pre-invasion exposure, read-out: IC50, liver stage), 199 nM; with sel. Dd2-B2 TKL3T1268R it was 355 nM; in data set [2] (DD2, Line sel. Dd2-B2 TKL3KO + PP1H237D), 621 nM; in [2] (DD2, Line sel. Dd2-B2 TKL3KO + PP1V249L) it was 549 nM; in data set [2] (DD2, Line sel. Dd2-B2 TKL3KO + URPE20*) it was 819 nM. Further, the IC50 was 141 nM with Pf NF54 male gametes (carry-over: gametogenesis induced in the presence of compound, read-out: IC50, male gamete exflagellation); over 10000 nM with Pf NF54 male gametes (compound washed out before gamete formation, read-out: IC50, male gamete formation, wash-out); 347 nM in data set [4]. Also, the “ABS development by light microscopy” value in the data set with Pf ABS parasites is given as “halted at the schizont stage”. Moreover, the “Activity against female gametes” value with Pf NF54 female gametes is “ambiguous results; also recorded: little to no activity”. Further, the “Parasite recrudescence under continuous exposure” value in data set [3] is listed as “did not result in parasite recrudescence”. Further, the “Inhibition of female gamete formation” value in the data set with female gamete formation is on record as “inhibitors of female gamete formation”. Further, the CC50 in “in vitro” was 41500 nM.

In general, IC50 refers to the point on the concentration scale where inhibition reaches its midpoint.
